{"source": "patent US20220000964A1", "about": "“Compositions and Methods for Regulating Homeostasis of Chondrocytes, Extracellular Matrix, Articular Cartilage, and Phenotype of Arthritis” (Unigen, Inc., priority 2020, published 2022)", "key": {"[1]": {"test_system": "Sprague Dawley rats", "experiment": "Hot plate test, topical application, paw withdrawal latency", "type": "in vivo, rat", "conditions": "for Paw withdrawal threshold (latency) Mean ± SD: in s (unit assumed); for % Change: negative = increased paw withdrawal latency; for increase in paw withdrawal latency as compared to vehicle: 5% concentration", "description": "Repeated application of anti-inflammatory compounds or extracts topically at the site of thermal contact (noxious stimulus) may cause desensitization of the peripheral afferent pain receptors to produce a delay in response time. A longer change in reaction time could be interpreted as an anti-nociceptive effect of the applied compound. To evaluate whether prepared plant extracts and compositions could provide anti-nociceptive activity, rats received orally-active anti-inflammatory extracts formulated in 2% Aloe vera gel at 5% concentration topically on their hind paws. The applied preparations on each paw were massaged at least 60 times in a circular motion into the skin until the applied content appeared visually absorbed. The procedure was repeated 3 times, every 30 minutes, before placing the animals on a preheated hot plate set to 53° C. The paw withdrawal latency was calculated as the time elapsed from the initial placement of the rat onto the hotplate to the withdrawal (or licking or shaking) of the hind paw in response to the thermal stimulus. Animals were immediately removed when this response was observed.\nThe anti-pain activity of medicinal plant extracts was tested on a hot plate set at 53° C. Test materials at 5% concentrations were topically applied at 20 μl/paw to the hind paws of both right and left paws of Sprague Dawley rats (n=10 per group). Applications of these extracts were carried out every 30 minutes for a total of 90 minutes. Within these 90 minutes, rats received a total of 60 μl/paw of the test article per rat. At 5% concentration, each rat received 3 mg/paw of the test articles. Due to the solubility characteristics of the compounds, two types of vehicles, V1=Dimethyl sulfoxide (DMSO)+propylene glycol (PG)+Aloe (2%), and V2=DMSO+OIL+PG, were used. Percent changes and P-values for statistical significance were determined using respective vehicles for each test material. The vehicle used for each material has been indicated in the parenthesis next to the test material. […] These increases in anti-pain activity were statistically significant. […] This percent change was statistically significant when compared to its respective vehicle."}, "[2]": {"test_system": "rabbit cartilage explants", "experiment": "Inhibition of glycosaminoglycan (GAG) release, rabbit cartilage explants stimulated with rhIL-1α", "type": "cell-based", "conditions": "for inhibition at 25 µg/mL: 25 μg/ml; for inhibition at 100 µg/mL: 100 μg/ml", "method": "Articular cartilage from hock joints of rabbits (2.5 kg body weight) was removed immediately after each animal was sacrificed. The articular cartilage explants were obtained by following the method described by Sandy et al, 1986. Briefly, after the articular surfaces were exposed surgically under sterile conditions, approximately 200-220 mg articular surfaces per joint were dissected and submerged into complete medium (DMEM, supplemented with heat inactivated 5% FBS; penicillin 100 U/ml; streptomycin 100 μg/ml). They were then rinsed several times with the complete medium and incubated for 2 days at 37° C. in a humidified 5% CO2/95% air incubator for stabilization. The complete medium was replaced with a basal medium (DMEM, supplemented with heat-inactivated 1% FBS, 10 mM HEPES, and penicillin 100 U/ml streptomycin 100 μg/ml). Approximately 30 mg cartilage pieces (2×3×0.35 mm/piece) were placed in 48-well plates and treated with given concentrations of test agents. After pretreatment for 1 h, 5 ng/ml of rhIL-1α was added to the culture medium and further incubated at 37° C. in a humidified 5% CO2/95% air incubator. The culture medium was collected 24 h later and stored at −80° C. until assay.\nThe amount of sulphated GAGs in the medium at the end of the reaction, reflecting the amount of articular cartilage degradation, was determined through 1,9-dimethy-methylene blue method using commercially available kit (the Blyscan proteoglycan and glycosaminoglycan assay) according to the instructions of the manufacturer. Diclofenac was utilized as a positive control at 300 μg/ml.\nDose curves of Alpinia, Pepper, Magnolia, and Kochia plant extracts were tested on the ex vivo glycosaminoglycan (GAG) release assay as illustrated in previous example to assess their cartilage protection effects. Cartilage explants were pre-treated with each extract before being exposed to IL-1α, which caused degradation and the release of GAGs from the cartilage matrix."}, "[3]": {"test_system": "Carrageenan-induced paw edema in rats", "experiment": "Carrageenan-induced paw edema in rats, pain sensitivity (anti-pain)", "type": "in vivo, rat", "method": "(§1) Carrageenan-induced paw edema in rats was used to evaluate the anti-inflammatory and anti-pain activities of individual Alpinia, Pepper, Magnolia and Kochia extracts. Sprague Dawley (SD) rats (N=5 per group) were given Alpinia, Pepper, Magnolia and Kochia extracts at 300 mg/kg orally one hour […] intra-plantar injection of 100 μl carrageenan. Pain sensitivity and paw edema were monitored at T0 (before carrageenan) and 2, 4 and 6 hours after carrageenan. Ibuprofen as a positive control was used at 150 mg/kg.\n(§2) Rats were gavaged with each constituent as they appeared in the 300 mg/kg of the AMK individually in order to determine whether the plant extracts acted synergistically. For the 2:4:3 ratio of AMK, rats were administered with 67 mg/kg of Alpinia extract, 133 mg/kg of Magnolia extract and 100 mg/kg of Kochia extract. The percent inhibition of pain and inflammation of the combined compositions at 300 mg/kg were compared with those dosages of individual extracts to find out potential additive, antagonistic or synergistic effects in combination using the Colby's equation.\n(§3) The merit of combining Alpinia with Pepper for AP (1:2 ratio) was evaluated in the carrageenan rat paw edema model. Rats were gavaged with each constituent as they appeared in 300 mg/kg of the AP. For the 1:2 ratio of AP, 100 mg/kg of Alpinia and 200 mg/kg of Pepper extract were administered to the rats. The percent inhibition of pain and inflammation of the compositions at 300 mg/kg was compared with those dosages of individual extracts to find out potential additive, antagonistic or synergistic effects in combination using Colby's equation (Colby 1967). For the blending of these plant extracts to have unexpected synergy, the observed inhibition needed to be greater than the calculated value."}, "[4]": {"test_system": "Carrageenan-induced paw edema in rats", "experiment": "Carrageenan-induced paw edema in rats, paw edema (anti-inflammation)", "type": "in vivo, rat", "method": "as §1, §2, §3"}, "[5]": {"conditions": "hot plate 53° C., topical, vehicle V1 (DMSO+PG+Aloe 2%), dose (%): Ibuprofen 5, Capsaicin 0.5, Diclofenac 1, others 5"}, "[6]": {"conditions": "vs vehicle V1, dose (%): Ibuprofen 5, Capsaicin 0.5, Diclofenac 1, others 5"}, "[7]": {"conditions": "100 mg/kg oral, 1 hr after treatment"}, "[8]": {"conditions": "100 mg/kg oral, 3 hr after treatment"}, "[9]": {"conditions": "100 mg/kg oral, 5 hr after treatment"}, "[10]": {"conditions": "150 mg/kg oral, 1 hr after treatment"}, "[11]": {"conditions": "150 mg/kg oral, 3 hr after treatment"}, "[12]": {"conditions": "150 mg/kg oral, 5 hr after treatment"}}, "note": "Several values for one entry are separate records, joined by “and”; a condition that tells them apart may be missing. Equal entries are not always repeated.", "data": [{"molecule": "CC1CCC(C(C)C)C(O)C1", "note": "(stereo not drawn) [Menthol]", "values": [{"measurement": "Paw withdrawal threshold (latency) Mean ± SD", "setting": "[1]; [5]", "result": "6.05 ± 1.70"}, {"measurement": "% Change", "setting": "[1]; [6]", "result": 15.1, "unit": "%"}]}, {"molecule": "C=CCc1ccc(O)c(-c2ccc(O)c(CC=C)c2)c1", "note": "[Honokiol]", "values": [{"measurement": "inhibition at 10 µg/mL", "setting": "[2]; Oryctolagus cuniculus, 10 μg/ml", "result": 104, "unit": "%"}, {"measurement": "inhibition at 50 µg/mL", "setting": "[2]; Oryctolagus cuniculus, 50 μg/ml", "result": 119, "unit": "%"}]}, {"molecule": "CC(C)Cc1ccc(C(C)C(=O)O)cc1", "note": "(stereo not drawn) [Ibuprofen]", "values": [{"measurement": "Anti-pain Percent change vs vehicle", "setting": "[3]; [7]", "result": "50.51% and 48.44% and 50.5%"}, {"measurement": "Anti-pain Percent change vs vehicle", "setting": "[3]; [8]", "result": "46.37% and 47.46% and 46.1%"}, {"measurement": "Anti-pain Percent change vs vehicle", "setting": "[3]; [9]", "result": "37.42% and 37.77% and 38.5%"}, {"measurement": "Pain sensitivity, Average", "setting": "[3]; 150 mg/kg oral, 1 hr", "result": 25.02}, {"measurement": "Anti-pain Percent change vs vehicle", "setting": "[3]; [10]", "result": "46.49% and 50.51% and 44.4%"}, {"measurement": "Pain sensitivity, Average", "setting": "[3]; 150 mg/kg oral, 3 hr", "result": 35.67}, {"measurement": "Anti-pain Percent change vs vehicle", "setting": "[3]; [11]", "result": "45.85% and 46.37% and 47.9%"}, {"measurement": "Pain sensitivity, Average", "setting": "[3]; 150 mg/kg oral, 5 hr", "result": 45.49}, {"measurement": "Anti-pain Percent change vs vehicle", "setting": "[3]; [12]", "result": "33.55% and 37.42% and 30.8%"}, {"measurement": "Anti-inflammation Percent change vs vehicle", "setting": "[4]; [7]", "result": "50.07% and 45.00% and 51.0%"}, {"measurement": "Anti-inflammation Percent change vs vehicle", "setting": "[4]; [8]", "result": "47.40% and 50.31% and 48.0%"}, {"measurement": "Anti-inflammation Percent change vs vehicle", "setting": "[4]; [9]", "result": "37.28% and 41.84% and 39.0%"}, {"measurement": "Paw edema, Average", "setting": "[4]; 150 mg/kg oral, 1 hr", "result": 1.43}, {"measurement": "Anti-inflammation Percent change vs vehicle", "setting": "[4]; [10]", "result": "43.03% and 49.50% and 47.3%"}, {"measurement": "Paw edema, Average", "setting": "[4]; 150 mg/kg oral, 3 hr", "result": 1.59}, {"measurement": "Anti-inflammation Percent change vs vehicle", "setting": "[4]; [11]", "result": "48.38% and 48.62% and 49.7%"}, {"measurement": "Paw edema, Average", "setting": "[4]; 150 mg/kg oral, 5 hr", "result": 1.77}, {"measurement": "Anti-inflammation Percent change vs vehicle", "setting": "[4]; [12]", "result": "36.79% and 37.66% and 37.6%"}, {"measurement": "Paw withdrawal threshold (latency) Mean ± SD", "setting": "[1]; [5]", "result": "8.73 ± 1.37"}, {"measurement": "Paw withdrawal threshold (latency) Mean ± SD", "setting": "[1]; hot plate 53° C., topical, vehicle V2 (DMSO+OIL+PG), run 2, dose 5%", "result": "6.05 ± 1.98"}, {"measurement": "increase in paw withdrawal latency as compared to vehicle", "setting": "[1]; topical, hot plate 53° C.", "result": 22.4, "unit": "%"}, {"measurement": "% Change", "setting": "[1]; [6]", "result": "−22.4", "unit": "%"}, {"measurement": "% Change", "setting": "[1]; vs vehicle V2 run 2, dose 5%", "result": "−23.98", "unit": "%"}]}, {"molecule": "Piperine", "values": [{"measurement": "Inhibition of GAG release", "setting": "[2]; 50 μg/ml", "result": 98, "unit": "%"}, {"measurement": "Paw withdrawal threshold (latency) Mean ± SD", "setting": "[1]; hot plate 53° C., topical, vehicle V2 (DMSO+OIL+PG), run 1, dose 5%", "result": "7.97 ± 1.86"}, {"measurement": "increase in paw withdrawal latency as compared to vehicle", "setting": "[1]; topical, hot plate 53° C.", "result": 32.6, "unit": "%"}, {"measurement": "% Change", "setting": "[1]; vs vehicle V2 run 1, dose 5%", "result": "−32.6", "unit": "%"}]}, {"molecule": "C=CCc1ccc(O)c(-c2cc(CC=C)ccc2O)c1", "note": "[Magnolol]", "values": [{"measurement": "Inhibition of GAG release", "setting": "[2]; 10 μg/ml", "result": 97, "unit": "%"}, {"measurement": "Inhibition of GAG release", "setting": "[2]; 50 μg/ml", "result": 97, "unit": "%"}]}, {"molecule": "CC1(C)CCC2(C(=O)O)CCC3(C)C(=CCC4C5(C)CCC(OC6OC(C(=O)O)C(O)C(OC7OCC(O)C(O)C7O)C6O)C(C)(C)C5CCC43C)C2C1", "note": "(stereo not drawn) [Momordin lc]", "values": [{"measurement": "inhibition at 25 µg/mL", "setting": "[2]; Oryctolagus cuniculus", "result": 84, "unit": "%"}, {"measurement": "inhibition at 100 µg/mL", "setting": "[2]; Oryctolagus cuniculus", "result": 83, "unit": "%"}]}, {"molecule": "C=C[C@H](OC(C)=O)c1ccc(OC(C)=O)cc1", "note": "[1′-acetoxychavicol acetate]", "values": [{"measurement": "inhibition at 25 µg/mL", "setting": "[2]; Oryctolagus cuniculus", "result": 99, "unit": "%"}, {"measurement": "inhibition at 100 µg/mL", "setting": "[2]; Oryctolagus cuniculus", "result": 109, "unit": "%"}]}, {"molecule": "CC(=O)OC/C=C/c1ccc(OC(C)=O)cc1", "note": "[p-coumaryl diacetate]", "values": [{"measurement": "inhibition at 25 µg/mL", "setting": "[2]; Oryctolagus cuniculus", "result": 111, "unit": "%"}, {"measurement": "inhibition at 100 µg/mL", "setting": "[2]; Oryctolagus cuniculus", "result": 138, "unit": "%"}]}, {"molecule": "COc1cc(CNC(=O)CCCC/C=C/C(C)C)ccc1O", "note": "[Capsaicin]", "values": [{"measurement": "Paw withdrawal threshold (latency) Mean ± SD", "setting": "[1]; [5]", "result": "4.51 ± 1.12"}, {"measurement": "decrease in paw withdrawal latency compared to vehicle", "setting": "[1]; topical, hot plate 53° C.", "result": 36.7, "unit": "%"}, {"measurement": "% Change", "setting": "[1]; [6]", "result": 36.7, "unit": "%"}]}]}
